The source of these data is US4997829A, “Penem compounds, and use thereof” (Suntory Limited, priority 1985, dated 1991).

SMILES strings stand for the structures. Read-outs that look alike come from different tables or passages of the source.

The conditions of series [1]: literature; cited from earlier work.
Series [2] has as its system S. aureus Smith. The experiment in a line: Therapeutic effect against experimental infection of mice (survival). It counts as in vivo, S. aureus; ICR strain male mice. The protocol: (§1) Out of the novel compounds obtained according to this invention, SUN 4435 was selected to carry out a treatment experiment with infected animals. As an animal, there were employed ICR strain male mice (5-weeks aged, with a body weight of 23 to 27 g), which were inoculated intraperitoneally with S. aureus Smith or E. coli KC-14 and 2 hours later, treated by subcutaneous or oral application of SUN 4435.

The test system of series [3] is E. coli KC-14. The description is as above. It is filed as in vivo, E. coli; ICR strain male mice. Here is the method: as §1
A further series deals with B. fragilis V-280-1. The experiment in a line: Minimum inhibitory concentration (MIC), agar plate dilution method. Particulars: Bacteroides fragilis, V2801; 10^6 CFU inoculated, 37° C., 18 hours. It is filed as cell-based. The protocol:
(§2) With regard to the novel compounds obtained according to this invention and the compounds of Reference Examples, their minimum inhibitory concentrations (MIC) were determined by the agar plate dilution method in accordance with the MIC measuring standard method of The Chemotherapeutic Society of Japan, whereby 10^6 colony forming units were inoculated and the minimal concentration to inhibit the microbial growth after inclubation at 37° C. for 18 hours were determined, as shown as μg/ml in Table.

The subject of another series is K. pneumoniae PC1602. The description is as above. It is filed as cell-based. The conditions noted are these: Klebsiella pneumoniae, PC1602; 10^6 CFU inoculated, 37° C., 18 hours. Here is the method:
as §2

A further series concerns Pr. vulgaris GN7919. The description is as above. It counts as cell-based. The conditions noted are these: Proteus vulgaris, GN7919; 10^6 CFU inoculated, 37° C., 18 hours. The protocol: as §2
A further series has as its system S. aureus FAD209P JC-1. The description is as above. It counts as cell-based. The conditions noted are these: Staphylococcus aureus, FAD209PJC1; 10^6 CFU inoculated, 37° C., 18 hours. The protocol: as §2
The subject of another series is B. fragilis GM7000. The series is described as above. It is filed as cell-based. The conditions noted are these: Bacteroides fragilis, GM7000; 10^6 CFU inoculated, 37° C., 18 hours. The protocol: as §2
For a further series, the system named is Al. fecalis IFO13111. The description is as above. The conditions noted are these: 10^6 CFU inoculated, 37° C., 18 hours. It counts as cell-based. Here is the method: as §2
In another series the test system is E. coli NIHI JC-2. The series is described as above. It is filed as cell-based. The conditions noted are these: Escherichia coli, NIHIJC2; 10^6 CFU inoculated, 37° C., 18 hours. Here is the method:
as §2

The subject of the next series is E. coli W3630/Rms212. The series is described as above. It is filed as cell-based. Particulars: Escherichia coli, W3630/RMS212, 18 h, read-out: minimum inhibitory concentration (MIC). The protocol: as §2
In the next series the test system is E. coli W3630/Rms213. Described as above. It counts as cell-based. Particulars: Escherichia coli, W3630/RMS213, 18 h, read-out: minimum inhibitory concentration (MIC). Here is the method: as §2
A further series concerns Pr. morganii IFO3848. The description is as above. The conditions noted are these: Morganella morganii, IFO3848; 10^6 CFU inoculated, 37° C., 18 hours. It counts as cell-based. The protocol: as §2
The subject of another series is Ser. marcescens IMA 1136. The series is described as above. It is filed as cell-based. The conditions noted are these: Serratia marcescens, IMA1136; 10^6 CFU inoculated, 37° C., 18 hours. Here is the method:
as §2

Another series deals with M. luteus ATCC9341. Described as above. Particulars: Micrococcus luteus, ATCC9341; 10^6 CFU inoculated, 37° C., 18 hours. It is filed as cell-based. The protocol: as §2
The next series deals with Ent. cloacae 963. Described as above. It is filed as cell-based. The conditions noted are these: Enterobacter cloacae, 963; 10^6 CFU inoculated, 37° C., 18 hours. Here is the method:
as §2

Another series deals with F. varium ATCC8501. The series is described as above. It is filed as cell-based. The conditions noted are these: Fusobacterium varium, ATCC8501; 10^6 CFU inoculated, 37° C., 18 hours. The protocol: as §2
The test system of series [4] is S. aureus Smith. The experiment in a line: Therapeutic effect against experimental infection in mice (ED50). The conditions noted are these: survival after 6 days, Probit method. It counts as in vivo, S. aureus; ICR strain male mice. Here is the method: (§3) Out of the novel compound obtained according to this invention, SUN 4435 was selected to carry out a treatment experiment with infected animals. As an animal, there were employed ICR strain male mice (5-weeks aged, with an average body weight of 29.1 g), which were infected intraperitoneally with a test microorganism, S. aureus Smith or E. coli KC-14, and 24 hours later, treated by subcutaneous or oral application of SUN 4435 or SUN 5555. ED50 values were determined from the survival rates found after 6 days in accordance with the Probit method.

The nature of a further series: Acute toxicity test. It counts as in vivo. The conditions noted are these: for LD50: mouse, in vivo, iv, route not restated (follows intravenous paragraph), read-out: 50% lethal dose (LD50); for survival: intravenous. Here is the method:
Out of the novel compounds obtained according to this invention, SUN 4435 and SUN 5555 were selected to carry out an acute toxicity test. As an animal, there were employed ICR strain mice (4-weeks aged), which were treated by oral and intravenous application of the compounds.

Series [5] deals with E. coli KC-14. The experiment in a line: Therapeutic effect against experimental infection in mice (ED50). It counts as in vivo, E. coli; ICR strain male mice. The conditions noted are these: survival after 6 days, Probit method. The protocol: as §3
Another series has as its system E. coli. The experiment in a line: Sensitivity of clinically isolated strains. It is filed as cell-based. The conditions noted are these: Escherichia coli; clinical isolates. The protocol:
(§4) With regard to the novel compound, SUN 5555, as obtained according to this invention, sensitivities were determined toward the S. aureus strain 87, E. coli strain 88, Klebsiella sp. strain 63, P. mirabillis strain 30, P. vulgaris strain 41, M. morganii strain 29, P. rettgeri strain 17, S. marcescens strain 88, A. calcoaceticus strain 57 and H. influenza strain 25. The determinations were carried out in accordance with the minimal growth inhibitory concentration measuring method as specified by The Chemotherapeutic Society of Japan, with the results being shown […], respectively.

The next series has as its system A. calcoaceticus. The experiment in a line: Sensitivity of clinically isolated strains. It counts as cell-based. The conditions noted are these: Acinetobacter calcoaceticus; clinical isolates. The protocol:
as §4

A further series has as its system M. morganii. The experiment in a line: Sensitivity of clinically isolated strains. It counts as cell-based. The conditions noted are these: Morganella morganii; clinical isolates. Here is the method: as §4
The next series relates to P. vulgaris. The experiment in a line: Sensitivity of clinically isolated strains. It counts as cell-based. The conditions noted are these: Proteus vulgaris. Here is the method:
as §4

Another series relates to H. influenza. The experiment in a line: Sensitivity of clinically isolated strains. It is filed as cell-based. The conditions noted are these: clinical isolates. Here is the method:
as §4

Another series deals with Klebsiella sp. The experiment in a line: Sensitivity of clinically isolated strains. It is filed as cell-based. Particulars: clinical isolates. The protocol:
as §4

Another series concerns S. marcescens. The experiment in a line: Sensitivity of clinically isolated strains. It counts as cell-based. Particulars: Serratia marcescens; clinical isolates. Here is the method:
as §4

The test system of the next series is P. rettgeri. The experiment in a line: Sensitivity of clinically isolated strains. It is filed as cell-based. Particulars: Providencia rettgeri; clinical isolates. The protocol:
as §4

For another series, the system named is S. aureus. The experiment in a line: Sensitivity of clinically isolated strains. Particulars: Staphylococcus aureus; clinical isolates. It counts as cell-based. Here is the method: as §4
Series [6] has as its system Methycillin-resistant S. aureus. The experiment in a line: Sensitivity of clinically isolated strains. It is filed as cell-based. Particulars: Staphylococcus aureus. Here is the method: as §4
For the next series, the system named is P. mirabillis. The experiment in a line: Sensitivity of clinically isolated strains. It counts as cell-based. The conditions noted are these: clinical isolates. The protocol: as §4
The next series concerns S. pyogenenes. The experiment in a line: Sensitivity of clinically isolated strains. The conditions noted are these: clinical isolates. It counts as cell-based.

By ED50 is commonly meant the dose that gives a 50% effect, or the effect in half of the subjects. By LD50 is commonly meant the dose at which mortality reaches 50%.

Turning to `C[C@@H](O)[C@@H]1C(=O)N2C(C(=O)O)=C(SCCN)S[C@H]12` [1-thiathienamycin], the activity result in [1] is “strong activity”.
For `C[C@@H](O)[C@H]1C(=O)N2C(C(=O)O)=C([C@H]3CCCO3)S[C@H]12` [SUN 4435, Potassium (1'R, 2"R, 5R, 6S)-6-(1'-hydroxyethyl)-2-(2"-tetrahydrofuranyl)penem-3-carboxylate], the survival result is on record as “three heads out of five survived” in the series with S. aureus Smith [2] (oral, 3.9 mg/kg, 3.6×10^5 CFU/head); “every heads were found to survive” with S. aureus Smith [2] (oral, 9.6 mg/kg or more, 3.6×10^5 CFU/head); “every heads were found to survive” in the series with S. aureus Smith [2] (subcutaneous, 1.6 mg/kg or more, 5.7×10^5 CFU); “every heads were found to survive” with E. coli KC-14 [3] (oral, 12.5 mg/kg or more, 1.5×10^5 CFU/head); “three mice per five survived” with E. coli KC-14 [3] (subcutaneous, 1.5 mg/kg, 3.1×10^5 CFU); “every heads were found to survive” in the series with E. coli KC-14 [3] (subcutaneous, 2.6 mg/kg or more, 3.1×10^5 CFU). Also, the MIC was 0.2 µg/mL with B. fragilis V-280-1; 0.1 µg/mL against K. pneumoniae PC1602; 0.39 µg/mL with Pr. vulgaris GN7919; 0.05 µg/mL in the series with S. aureus FAD209P JC-1; under 0.025 µg/mL against B. fragilis GM7000; 0.78 µg/mL in the series with Al. fecalis IFO13111. Besides, the MIC with E. coli NIHI JC-2 stood at 0.78 µg/mL; with E. coli W3630/Rms212, 1.56 µg/mL; with E. coli W3630/Rms213, 0.78 µg/mL; with Pr. morganii IFO3848, 6.25 µg/mL; in the series with Ser. marcescens IMA 1136, 3.13 µg/mL; with M. luteus ATCC9341 it was 0.05 µg/mL. The MIC turned out to be 3.13 µg/mL in the series with Ent. cloacae 963 and 0.2 µg/mL against F. varium ATCC8501. The ED50 in the series on S. aureus Smith [4] (Staphylococcus aureus, po, 144 h, read-out: ED50) was determined as 5.9 mg/kg; with E. coli KC-14 [5] (Escherichia coli, KC14, po, 144 h, oral, read-out: ED50) it was 11 mg/kg; with E. coli KC-14 [5] (Escherichia coli, KC14, sc, 144 h, subcutaneous, read-out: ED50), 1.5 mg/kg. The LD50 in the series “Acute toxicity test” (female mice) came out at 456 mg/kg; in the series “Acute toxicity test” (male mice), 480 mg/kg.
For `C[C@@H](O)[C@H]1C(=O)N2C(C(=O)O)=C([C@H]3CCCO3)S[C@H]12` [SUN 5555, Sodium (1'R, 2"R, 5R, 6S)-6-(1'-hydroxyethyl)-2-(2"-tetrahydofuranyl)penem-3-carboxylate], the ED50 in the series on S. aureus Smith [4] (oral, 8640 min) worked out at 5.6 mg/kg; in the series on E. coli KC-14 [5] (oral, 8640 min), 13.9 mg/kg. In addition, the MIC50 is 0.78 µg/mL in the series on E. coli; 6.25 µg/mL in the series on A. calcoaceticus; 1.56 µg/mL against M. morganii; 3.13 µg/mL against P. vulgaris; 0.39 µg/mL in the series on H. influenza; 0.78 µg/mL in the series on Klebsiella sp.. In addition, the MIC50 in the series with S. marcescens is 1.56 µg/mL; against P. rettgeri, 1.56 µg/mL; in the series with S. aureus it was 0.1 µg/mL; in [6], 1.56 µg/mL; against P. mirabillis it was 3.13 µg/mL; in the series with S. pyogenenes it was under 0.025 µg/mL. The MIC90 against E. coli is 1.56 µg/mL; in the series on A. calcoaceticus, 25 µg/mL; with M. morganii, 6.25 µg/mL; with P. vulgaris it was 6.25 µg/mL; in the series with H. influenza it was 0.78 µg/mL; with Klebsiella sp. it was 1.56 µg/mL. Further, the MIC90 is 6.25 µg/mL against S. marcescens; 6.25 µg/mL against P. rettgeri; 0.2 µg/mL against S. aureus; over 100 µg/mL in [6]; 6.25 µg/mL against P. mirabillis; under 0.025 µg/mL in the series with S. pyogenenes. Further, the survival entry in the series “Acute toxicity test” (3 g/kg, two male and female mice) is listed as “survived”; in the series “Acute toxicity test” (5 g/kg, five male mice) it was “one out of five male mice”.
On to `CCSC1=C(C(=O)O)N2C(=O)[C@H]([C@@H](C)O)[C@H]2S1` [Sch 29482], for which the activity entry in series [1] is reported as “strong activity”.
